The test system of one experiment is Akt-pS473 in U87MG cells. Particulars: Homo sapiens, U-87 MG; for IC50: read-out: U87 Akt-pS473 % Inhibition or IC50, nM (IC50), U87MG cells.
For another experiment, the system named is U87MG tumour cells. Description: Test of in vitro proliferation of U87MG tumour cells. It counts as cell-based. Particulars: Homo sapiens, U-87 MG, 72 h, U87MG cells, 72 hours; read-out: U87 Cell Proliferation IC50. The method, then: Model 4: Test of in vitro Proliferation of U87MG Tumour Cells.
The cell growth is determined with the reagent CellTiter 96 AQueous One Solution Cell Proliferation Assay from Promega (Cat. No. G3581).

In experiment [1] the target is mTOR (human recombinant aa mTOR 1360-2549) (Homo sapiens (Human), UniProt P42345). The experiment can be described thus: mTOR enzymatic test by TR-FRET (phosphorylation of GFP-4EBP1). The format is biochemical. The essentials: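 After a 30 min room-temperature kinase reaction, EDTA (10 mM final) and Tb-labelled phospho-Thr46 antibody (2 nM final) were added and incubated 60 min. Energy transfer from Tb to phosphorylated GFP-4EBP1 was read at 340 nm excitation, emissions 490/520 nm. Values derive from the 520/490 fluorescence ratio.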
Chain of mTOR (human recombinant aa mTOR 1360-2549) (P42345 1360-2549): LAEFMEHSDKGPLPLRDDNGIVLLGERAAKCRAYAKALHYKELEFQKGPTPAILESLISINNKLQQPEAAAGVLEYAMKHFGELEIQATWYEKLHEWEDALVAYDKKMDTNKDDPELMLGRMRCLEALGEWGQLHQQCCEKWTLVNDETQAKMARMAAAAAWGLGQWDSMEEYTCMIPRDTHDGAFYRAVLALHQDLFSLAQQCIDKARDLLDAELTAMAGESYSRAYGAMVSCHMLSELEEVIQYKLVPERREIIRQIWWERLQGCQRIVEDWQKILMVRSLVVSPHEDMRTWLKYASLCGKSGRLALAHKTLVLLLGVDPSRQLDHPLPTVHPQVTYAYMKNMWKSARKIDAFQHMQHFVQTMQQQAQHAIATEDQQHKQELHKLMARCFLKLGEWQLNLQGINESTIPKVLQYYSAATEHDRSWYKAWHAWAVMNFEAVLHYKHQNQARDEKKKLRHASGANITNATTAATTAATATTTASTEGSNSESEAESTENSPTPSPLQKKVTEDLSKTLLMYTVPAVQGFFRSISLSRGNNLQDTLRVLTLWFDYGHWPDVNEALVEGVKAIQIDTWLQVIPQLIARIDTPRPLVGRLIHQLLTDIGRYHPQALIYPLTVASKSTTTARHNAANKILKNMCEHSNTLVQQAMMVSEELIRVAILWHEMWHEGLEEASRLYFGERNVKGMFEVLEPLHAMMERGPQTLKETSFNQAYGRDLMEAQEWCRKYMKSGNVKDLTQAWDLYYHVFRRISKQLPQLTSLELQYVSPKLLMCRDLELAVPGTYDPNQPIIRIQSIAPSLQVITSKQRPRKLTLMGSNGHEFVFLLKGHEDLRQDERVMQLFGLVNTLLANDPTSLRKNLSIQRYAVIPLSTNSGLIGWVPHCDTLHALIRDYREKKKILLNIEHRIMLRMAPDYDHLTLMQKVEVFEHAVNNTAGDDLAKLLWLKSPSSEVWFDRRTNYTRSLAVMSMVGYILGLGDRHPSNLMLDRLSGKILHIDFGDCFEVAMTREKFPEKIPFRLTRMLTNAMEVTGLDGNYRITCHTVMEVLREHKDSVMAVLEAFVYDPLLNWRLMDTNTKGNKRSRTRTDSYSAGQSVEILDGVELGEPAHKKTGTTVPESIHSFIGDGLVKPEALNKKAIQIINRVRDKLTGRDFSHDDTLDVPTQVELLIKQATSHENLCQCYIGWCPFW

The next experiment concerns the target PI3Kα (p110α/p85α) (Homo sapiens (Human), UniProt P42336). The experiment can be described thus: PI3Kα enzymatic test by measuring the consumption of ATP. It counts as biochemical. An outline of the steps: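 ATP consumption read out by KinaseGlo luminescence after a 90 min reaction of 1.7 μg/ml PI3Kα (p110α/p85α) with 2 μM ATP and 50 μM PIP2, buffered at pH 7.5 (Tris, 10 mM MgCl2, 1 mM EGTA, 0.03% Chaps, 1 mM DTT). Threefold dilution series over ≥10 000-fold range yield IC50.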

Molecules are shown by their SMILES.

By inhibition is commonly meant how much of the control response was suppressed.

Chain of PI3Kα (p110α/p85α) (P42336 whole entry): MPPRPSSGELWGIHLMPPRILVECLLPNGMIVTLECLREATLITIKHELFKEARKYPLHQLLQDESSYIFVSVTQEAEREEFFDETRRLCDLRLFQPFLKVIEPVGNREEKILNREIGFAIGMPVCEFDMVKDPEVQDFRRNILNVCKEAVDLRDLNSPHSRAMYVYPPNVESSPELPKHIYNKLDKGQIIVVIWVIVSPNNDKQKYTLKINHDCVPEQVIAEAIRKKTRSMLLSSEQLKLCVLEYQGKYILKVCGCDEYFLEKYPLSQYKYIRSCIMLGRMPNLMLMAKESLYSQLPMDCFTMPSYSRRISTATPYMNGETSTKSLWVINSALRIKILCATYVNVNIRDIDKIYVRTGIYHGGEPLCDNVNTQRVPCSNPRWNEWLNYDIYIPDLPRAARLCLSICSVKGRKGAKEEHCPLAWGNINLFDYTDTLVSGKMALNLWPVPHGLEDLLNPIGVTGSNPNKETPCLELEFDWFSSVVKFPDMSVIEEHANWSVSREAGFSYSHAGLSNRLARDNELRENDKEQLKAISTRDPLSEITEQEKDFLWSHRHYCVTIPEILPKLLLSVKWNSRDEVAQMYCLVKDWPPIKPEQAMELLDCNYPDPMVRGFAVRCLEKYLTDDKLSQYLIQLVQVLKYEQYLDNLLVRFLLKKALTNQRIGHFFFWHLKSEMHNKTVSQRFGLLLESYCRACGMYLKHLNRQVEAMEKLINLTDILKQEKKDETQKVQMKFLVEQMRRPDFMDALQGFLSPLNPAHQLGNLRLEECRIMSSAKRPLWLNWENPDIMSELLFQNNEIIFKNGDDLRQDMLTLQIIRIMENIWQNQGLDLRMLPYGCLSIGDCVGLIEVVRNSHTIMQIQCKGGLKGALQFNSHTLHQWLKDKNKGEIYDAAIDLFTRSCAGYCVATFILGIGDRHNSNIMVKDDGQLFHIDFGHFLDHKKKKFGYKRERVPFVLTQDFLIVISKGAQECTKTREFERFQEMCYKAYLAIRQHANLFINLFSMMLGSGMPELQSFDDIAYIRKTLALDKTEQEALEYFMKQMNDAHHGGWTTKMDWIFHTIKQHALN
Chain of PI3Kα (p110α/p85α) (P27986 whole entry partner): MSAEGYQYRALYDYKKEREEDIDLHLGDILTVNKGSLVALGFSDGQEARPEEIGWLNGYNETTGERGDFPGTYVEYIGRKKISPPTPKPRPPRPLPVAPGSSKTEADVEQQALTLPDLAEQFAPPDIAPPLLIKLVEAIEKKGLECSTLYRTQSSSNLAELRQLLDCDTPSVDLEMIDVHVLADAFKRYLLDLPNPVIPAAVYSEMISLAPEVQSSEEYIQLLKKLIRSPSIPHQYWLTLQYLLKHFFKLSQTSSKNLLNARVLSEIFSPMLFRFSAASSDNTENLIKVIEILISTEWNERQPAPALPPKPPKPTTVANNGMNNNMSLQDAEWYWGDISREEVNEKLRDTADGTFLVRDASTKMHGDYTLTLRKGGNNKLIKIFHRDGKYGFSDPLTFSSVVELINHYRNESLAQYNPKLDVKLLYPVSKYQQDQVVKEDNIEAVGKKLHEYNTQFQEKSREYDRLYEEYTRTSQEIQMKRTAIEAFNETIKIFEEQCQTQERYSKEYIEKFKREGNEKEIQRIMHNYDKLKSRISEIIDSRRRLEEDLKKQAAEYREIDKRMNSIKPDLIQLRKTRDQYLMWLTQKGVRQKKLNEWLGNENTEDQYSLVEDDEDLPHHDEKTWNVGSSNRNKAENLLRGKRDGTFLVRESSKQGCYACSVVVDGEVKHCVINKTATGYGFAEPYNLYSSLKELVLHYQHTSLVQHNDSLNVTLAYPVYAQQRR

For the molecule `C[C@H]1COCCN1c1ccc(NC(=O)Nc2ccc(-c3nc(N4C5CCC4COC5)nc4c3C(=O)N(C)CC(C)(C)O4)cc2F)cn1` [Example 74, 1-{2-Fluoro-4-[6,8,8-trimethyl-2-(3-oxa-8-azabicyclo[3.2.1]oct-8-yl)-5-oxo-5,6,7,8-tetrahydro-9-oxa-1,3,6-triazabenzocyclohepten-4-yl]phenyl}-3-[6-((S)-3-methylmorpholin-4-yl)pyridin-3-yl]urea], the IC50 is 31 nM with Akt-pS473 in U87MG cells, 0.126 µM in the experiment with U87MG tumour cells and 0.064 µM in experiment [1]. In addition, the “PI3Ka IC50” value on PI3Kα (p110α/p85α) was over 10 µM.

In the case of `CCN1CC(C)(C)Oc2nc(N3[C@@H]4CC[C@H]3COC4)nc(-c3ccc(NC(=O)Nc4ccncc4F)cc3)c2C1=O` [Example 75, 1-[4-((1S,5R)-6-Ethyl-8,8-dimethyl-2-3-oxa-8-azabicyclo[3.2.1]oct-8-yl-5-oxo-5,6,7,8-tetrahydro-9-oxa-1,3,6-triazabenzocyclohepten-4-yl)phenyl]-3-(3-fluoropyridin-4-yl)urea], the IC50 came to 8 nM with Akt-pS473 in U87MG cells, 0.047 µM in the experiment with U87MG tumour cells and 0.04 µM in experiment [1]. Besides, on PI3Kα (p110α/p85α), the “PI3Ka IC50” value turned out to be 5.57 µM.

As for `CCN1CC(C)(C)Oc2nc(N3CC4CCC(C3)O4)nc(-c3ccc(NC(=O)Nc4ccncc4F)c(F)c3)c2C1=O` [Example 76], the values for the IC50 (with Akt-pS473 in U87MG cells; in the experiment on U87MG tumour cells; in experiment [1]) were 29 nM, 0.367 µM and 0.028 µM, respectively. In addition, the “PI3Ka IC50” value at PI3Kα (p110α/p85α) came to 2.36 µM.

With `CCN1CC(C)(C)Oc2nc(N3CC4CCC(C3)O4)nc(-c3ccc(NC(=O)Nc4ccc(OC5CCOC5)cc4)c(F)c3)c2C1=O` (stereo not shown) [Example 77, 1-{4-[6-Ethyl-8,8-dimethyl-2-(8-oxa-3-azabicyclo[3.2.1]oct-3-yl)-5-oxo-5,6,7,8-tetrahydro-9-oxa-1,3,6-triazabenzocyclohepten-4-yl]-2-fluorophenyl}-3-[4-(tetrahydrofuran-3-yloxy)phenyl]urea], the IC50 was 16 nM with Akt-pS473 in U87MG cells, 0.053 µM in the experiment on U87MG tumour cells and 0.056 µM in experiment [1]. Moreover, on PI3Kα (p110α/p85α), the “PI3Ka IC50” value was 4.49 µM.

`CCN1CC(C)(C)Oc2nc(N3CC4CCC(C3)O4)nc(-c3ccc(NC(=O)Nc4ccnc(N(C)C)c4)c(F)c3)c2C1=O` [Example 78, 1-(2-Dimethylaminopyridin-4-yl)-3-{4-[6-ethyl-8,8-dimethyl-2-(8-oxa-3-azabicyclo[3.2.1]oct-3-yl)-5-oxo-5,6,7,8-tetrahydro-9-oxa-1,3,6-triazabenzocyclohepten-4-yl]-2-fluorophenyl}urea]: the IC50 came to 28 nM in the experiment on Akt-pS473 in U87MG cells, 0.083 µM in the experiment with U87MG tumour cells and 0.09 µM in experiment [1]. Further, on PI3Kα (p110α/p85α), the “PI3Ka IC50” value was 6.26 µM.

With `CCN1CC(C)(C)Oc2nc(N3C4CCC3COC4)nc(-c3ccc(NC(=O)Nc4cc(OC)ccn4)cc3)c2C1=O` [Example 79, 1-{4-[6-Ethyl-8,8-dimethyl-2-(3-oxa-8-azabicyclo[3.2.1]oct-8-yl)-5-oxo-5,6,7,8-tetrahydro-9-oxa-1,3,6-triazabenzocyclohepten-4-yl]phenyl}-3-(4-methoxypyridin-2-yl)urea], the IC50 stood at 41 nM with Akt-pS473 in U87MG cells, 0.383 µM with U87MG tumour cells and 0.053 µM in experiment [1]. For the same molecule, on PI3Kα (p110α/p85α), the “PI3Ka IC50” value was over 10 µM.

In the case of `CCN1CC(C)(C)Oc2nc(N3CC4CCC(C3)O4)nc(-c3ccc(NC(=O)Nc4ccnc(N5CCN(S(C)(=O)=O)CC5)c4)c(F)c3)c2C1=O` [Example 80, 1-{4-[6-Ethyl-8,8-dimethyl-2-(8-oxa-3-azabicyclo[3.2.1]oct-3-yl)-5-oxo-5,6,7,8-tetrahydro-9-oxa-1,3,6-triazabenzocyclohepten-4-yl]-2-fluorophenyl}-3-[2-(4-methanesulfonylpiperazin-1-yl)pyridin-4-yl]urea], the IC50 was 48 nM in the experiment with Akt-pS473 in U87MG cells, 0.151 µM with U87MG tumour cells and 0.072 µM in experiment [1]. The “PI3Ka IC50” value at PI3Kα (p110α/p85α) was over 10 µM.

Turning to `CCN1CC(C)(C)Oc2nc(N3CC4CCC(C3)O4)nc(-c3ccc(NC(=O)Nc4ccc(N5CCN(C(=O)OC)CC5)nc4)c(F)c3)c2C1=O` [Example 81, 4-[5-(3-{4-[6-Ethyl-8,8-dimethyl-2-(8-oxa-3-azabicyclo[3.2.1]oct-3-yl)-5-oxo-5,6,7,8-tetrahydro-9-oxa-1,3,6-triazabenzocyclohepten-4-yl]-2-fluorophenyl}ureido)pyridin-2-yl]piperazine-1-carboxylic acid methyl ester], the results for the IC50 (in the experiment with Akt-pS473 in U87MG cells; with U87MG tumour cells; in experiment [1]) were 17 nM, 0.108 µM and 0.124 µM, respectively. The “PI3Ka IC50” value at PI3Kα (p110α/p85α) was 2.1 µM.

Turning to `CN1CC(C)(C)Oc2nc(N3C4CCC3COC4)nc(-c3ccc(NC(=O)Nc4ccncc4)c(F)c3)c2C1=O` [Example 82, 1-{2-Fluoro-4-[6,8,8-trimethyl-2-(3-oxa-8-azabicyclo[3.2.1]oct-8-yl)-5-oxo-5,6,7,8-tetrahydro-9-oxa-1,3,6-triazabenzocyclohepten-4-yl]phenyl}-3-pyridin-4-ylurea], the IC50 was 13 nM in the experiment with Akt-pS473 in U87MG cells, 0.029 µM in the experiment with U87MG tumour cells and 0.021 µM in experiment [1]. Also, the “PI3Ka IC50” value on PI3Kα (p110α/p85α) came out at 2.24 µM.

Consider `CN1CC(C)(C)Oc2nc(N3CC4CCC(C3)O4)nc(-c3ccc(NC(=O)Nc4ccncc4)c(F)c3)c2C1=O` [Example 83, 1-{2-Fluoro-4-[6,8,8-trimethyl-2-(8-oxa-3-azabicyclo[3.2.1]oct-3-yl)-5-oxo-5,6,7,8-tetrahydro-9-oxa-1,3,6-triazabenzocyclohepten-4-yl]phenyl}-3-pyridin-4-ylurea], for which the values for the IC50 (with Akt-pS473 in U87MG cells; in the experiment on U87MG tumour cells; in experiment [1]) were 16 nM, 0.041 µM and 0.02 µM, respectively. The “PI3Ka IC50” value at PI3Kα (p110α/p85α) came out at 1.46 µM.

Regarding `CCN1CC(C)(C)Oc2nc(N3CC4CCC(C3)O4)nc(-c3ccc(NC(=O)Nc4ccccn4)cc3F)c2C1=O` [Example 84, 1-{4-[6-Ethyl-8,8-dimethyl-2-(8-oxa-3-azabicyclo[3.2.1]oct-3-yl)-5-oxo-5,6,7,8-tetrahydro-9-oxa-1,3,6-triazabenzocyclohepten-4-yl]-3-fluorophenyl}-3-pyridin-2-ylurea], the IC50 was found to be 255 nM in the experiment on Akt-pS473 in U87MG cells, 0.76 µM in the experiment with U87MG tumour cells and 0.023 µM in experiment [1]. Also, the “PI3Ka IC50” value at PI3Kα (p110α/p85α) was over 10 µM.

For `CN1CC(C)(C)Oc2nc(N3CC4CCC(C3)O4)nc(-c3ccc(NC(=O)Nc4ccncc4F)cc3)c2C1=O` [Example 85, 1-(3-Fluoropyridin-4-yl)-3-{4-[6,8,8-trimethyl-2-(8-oxa-3-azabicyclo[3.2.1]oct-3-yl)-5-oxo-5,6,7,8-tetrahydro-9-oxa-1,3,6-triazabenzocyclohepten-4-yl]phenyl}urea], the IC50 was determined as 28 nM in the experiment with Akt-pS473 in U87MG cells, 0.077 µM with U87MG tumour cells and 0.024 µM in experiment [1]. For the same molecule, the “PI3Ka IC50” value on PI3Kα (p110α/p85α) was found to be 1.95 µM.

In the case of `CCN1CC(C)(C)Oc2nc(N3CC4CCC(C3)O4)nc(-c3ccc(NC(=O)Nc4ccnc5[nH]ccc45)c(F)c3)c2C1=O` [Example 86, 1-{4-[6-Ethyl-8,8-dimethyl-2-(8-oxa-3-azabicyclo[3.2.1]oct-3-yl)-5-oxo-5,6,7,8-tetrahydro-9-oxa-1,3,6-triazabenzocyclohepten-4-yl]-2-fluorophenyl}-3-(1H-pyrrolo[2,3-b]pyridin-4-yl)urea], the values for the IC50 (in the experiment with Akt-pS473 in U87MG cells; in the experiment with U87MG tumour cells; in experiment [1]) were 144 nM, 0.49 µM and 0.377 µM, respectively. The “PI3Ka IC50” value at PI3Kα (p110α/p85α) is over 10 µM.

For the molecule `C[C@@H]1COCCN1c1ccc(NC(=O)Nc2ccc(-c3nc(N4CC5CCC(C4)O5)nc4c3C(=O)N(C)CC(C)(C)O4)cc2F)cn1` [Example 87, 1-{2-Fluoro-4-[6,8,8-trimethyl-2-(8-oxa-3-azabicyclo[3.2.1]oct-3-yl)-5-oxo-5,6,7,8-tetrahydro-9-oxa-1,3,6-triazabenzocyclohepten-4-yl]phenyl}-3-[6-((R)-3-methylmorpholin-4-yl)pyridin-3-yl]urea], the IC50 is 20 nM with Akt-pS473 in U87MG cells, 0.059 µM in the experiment with U87MG tumour cells and 0.057 µM in experiment [1]. Further, at PI3Kα (p110α/p85α), the “PI3Ka IC50” value is over 10 µM.

On to `CCN1CC(C)(C)Oc2nc(N3CC4CCC(C3)O4)nc(-c3ccc(NC(=O)OC[C@H](C)O)cc3)c2C1=O` [Example 88, {4-[6-Ethyl-8,8-dimethyl-2-(8-oxa-3-azabicyclo[3.2.1]oct-3-yl)-5-oxo-5,6,7,8-tetrahydro-9-oxa-1,3,6-triazabenzocyclohepten-4-yl]phenyl}carbamic acid (S)-2-hydroxypropyl ester], for which the inhibition at 1 µM in the experiment on Akt-pS473 in U87MG cells (read-out: U87 Akt-pS473 % Inhibition) was found to be 65%. The IC50 amounted to 1.9 µM in the experiment on U87MG tumour cells and 0.198 µM in experiment [1]. On PI3Kα (p110α/p85α), the “PI3Ka IC50” value was over 10 µM.

Take `CCN1CC(C)(C)Oc2nc(N3C4CCC3COC4)nc(-c3ccc(NC(=O)Nc4cc(OC)ccn4)cc3F)c2C1=O` [Example 89, 1-{4-[6-Ethyl-8,8-dimethyl-2-(3-oxa-8-azabicyclo[3.2.1]oct-8-yl)-5-oxo-5,6,7,8-tetrahydro-9-oxa-1,3,6-triazabenzocyclohepten-4-yl]-3-fluorophenyl}-3-(4-methoxypyridin-2-yl)urea]: the results for the IC50 (in the experiment with Akt-pS473 in U87MG cells; in the experiment with U87MG tumour cells; in experiment [1]) were 260 nM, 0.221 µM and 0.084 µM, respectively. Moreover, on PI3Kα (p110α/p85α), the “PI3Ka IC50” value was over 10 µM.

The values above are taken from patent US9120812B2, “Pyrimidooxazocine derivatives as mTOR-inhibitors” (SANOFI, priority 2012, dated 2015).
